Where two headings read alike, the source gives them in different places.
How the values were obtained:
KKAY mice [1] = test: Plasma anti-arteriosclerosis index-enhancing action in mice (Test Example 2); type: in vivo; details: Mus musculus, po, 96 h, 0.005% in powdery diet, four days, percent increase of (HDL cholesterol/total cholesterol)x100, non-treatment group taken as 100%
Procedure: Test compounds were mixed in a powdery diet (CE-2, Japan Clea) at the concentration of 0.005%, and freely given to KKAY mice (9 to 12 weeks old, 5 mice per group), a model of obese and non-insulin dependent diabetes (type 2 diabetes), for four days. During this period, water was given freely. Blood was sampled from orbital venous plexus and components in plasma separated from blood were determined. Total cholesterol levels were determined by using L type Wako Cholesterol (Wako Pure Chemical Industries, Ltd.). Precipitation reagent for HDL cholesterol (Wako Pure Chemical Industries, Ltd.) was added to a part of the plasma to precipitate non-HDL lipoprotein, and cholesterol (HDL cholesterol) in the resulting supernatant was determined. The plasma anti-arteriosclerosis index [(HDL cholesterol/total cholesterol)×100] was calculated by using these cholesterol levels.
In the Table, “Plasma anti-arteriosclerosis index-enhancing action (%)” represents the percent increase (%) of plasma anti-arteriosclerosis index in the treatment group, when the plasma anti-arteriosclerosis index in the non-treatment group is taken as 100%.

KKAY mice [2] = test: Hypoglycemic and hypolipidemic actions in mice (Test Example 1); type: in vivo; details: Mus musculus, po, 96 h, 0.005% in powdery diet, four days, non-treated group taken as 100%
Method in brief: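 KKAY mice (9 to 12 weeks old, 5 per group) were fed diet containing 0.005% test compound ad libitum for four days. Plasma glucose and triglycerides from orbital venous blood were measured enzymatically, reported as % decrease relative to untreated group (100%).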

PPARγ-RXRα heterodimer = target: T1, PPARγ-RXRα heterodimer (Homo sapiens, UniProt P37231); test: PPARγ-RXRα heterodimer ligand activity, luciferase reporter in PPARγ:RXRα:4ERPP/CHO-K1 cells (Test Example 3); type: cell-based; details: 18-48 hours, concentration for 50% of the maximum fold induction
T1 construct: expressed in transfected cells; host or cells: CHO-K1
T1 sequence (P37231 1-477 isoform P37231-2): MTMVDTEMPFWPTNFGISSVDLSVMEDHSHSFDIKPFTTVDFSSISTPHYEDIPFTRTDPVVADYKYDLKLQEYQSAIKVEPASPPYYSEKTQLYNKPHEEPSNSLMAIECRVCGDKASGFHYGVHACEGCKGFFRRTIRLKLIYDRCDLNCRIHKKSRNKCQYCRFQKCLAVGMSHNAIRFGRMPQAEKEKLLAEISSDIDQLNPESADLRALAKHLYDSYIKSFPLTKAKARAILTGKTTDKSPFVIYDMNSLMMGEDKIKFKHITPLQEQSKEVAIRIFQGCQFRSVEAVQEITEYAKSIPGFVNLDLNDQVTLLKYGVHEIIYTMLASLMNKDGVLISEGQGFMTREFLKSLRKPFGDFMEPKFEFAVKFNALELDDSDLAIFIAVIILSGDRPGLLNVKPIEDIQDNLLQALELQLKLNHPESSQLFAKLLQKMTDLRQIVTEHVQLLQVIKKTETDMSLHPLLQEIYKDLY
T1 sequence (P19793 1-462 partner): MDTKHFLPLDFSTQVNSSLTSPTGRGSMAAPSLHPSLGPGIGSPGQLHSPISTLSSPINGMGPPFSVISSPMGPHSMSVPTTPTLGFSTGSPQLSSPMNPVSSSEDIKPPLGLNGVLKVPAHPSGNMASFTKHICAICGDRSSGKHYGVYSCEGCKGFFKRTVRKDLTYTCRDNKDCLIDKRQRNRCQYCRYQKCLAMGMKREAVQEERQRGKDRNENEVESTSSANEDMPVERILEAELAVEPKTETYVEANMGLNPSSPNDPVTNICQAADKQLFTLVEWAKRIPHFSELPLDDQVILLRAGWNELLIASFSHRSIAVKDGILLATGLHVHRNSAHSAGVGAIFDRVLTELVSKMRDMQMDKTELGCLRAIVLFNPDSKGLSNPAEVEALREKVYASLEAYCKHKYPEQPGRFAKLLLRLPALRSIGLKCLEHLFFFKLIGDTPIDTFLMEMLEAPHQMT
Method in brief: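 Stable CHO-K1 line co-expressing hPPARγ/RXR with 4ERPP-TK luciferase reporter, 2×10^4 cells per well, treated 18-48 h at 37° C. in HAM F12 with 0.1% fatty acid-free BSA. Luciferase fold induction versus untreated taken as 1; EC50 is concentration giving 50% of maximal fold induction.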

PPARδ-RXRα heterodimer = target: T2, PPARδ-RXRα heterodimer (Homo sapiens, UniProt Q03181); test: PPARδ-RXRα heterodimer ligand activity, luciferase reporter in COS-1 transformant (Test Example 4); type: cell-based; details: COS-1 transformant (hPPARδ, hRXRα, reporter), 36-48 hours, concentration for 50% of the maximum fold induction
T2 construct: expressed in transfected cells; host or cells: COS-1
T2 sequence (Q03181 1-441): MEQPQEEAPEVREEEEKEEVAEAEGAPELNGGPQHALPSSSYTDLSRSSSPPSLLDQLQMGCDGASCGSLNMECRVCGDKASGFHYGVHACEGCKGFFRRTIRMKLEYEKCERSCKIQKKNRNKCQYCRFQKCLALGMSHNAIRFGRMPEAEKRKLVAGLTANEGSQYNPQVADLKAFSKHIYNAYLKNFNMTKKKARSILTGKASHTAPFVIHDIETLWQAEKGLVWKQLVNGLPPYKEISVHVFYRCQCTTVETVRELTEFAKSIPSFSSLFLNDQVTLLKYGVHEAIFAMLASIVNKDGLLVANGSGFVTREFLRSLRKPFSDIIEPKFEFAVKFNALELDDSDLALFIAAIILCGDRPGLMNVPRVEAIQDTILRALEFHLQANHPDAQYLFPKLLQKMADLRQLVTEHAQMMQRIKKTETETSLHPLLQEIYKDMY
T2 sequence (P19793 1-462 partner): T1 sequence (P19793 1-462 partner)
Method in brief: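 COS-1 cells transiently co-transfected with human PPARδ, human RXRα, PPRE-luciferase reporter and pRL-tk, then exposed to compound 36-48 h at 37 °C in DMEM with 0.1% fatty acid-free BSA. Luciferase read as fold induction over untreated; EC50 at 50% of maximal fold induction.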

[3] = rate of decrease in blood glucose level, read-out: Hypoglycemic action (%)
[4] = rate of decrease in blood triglyceride level, read-out: Hypolipidemic action (%)

| Compound | change in vivo at 0.005 % in diet (KKAY mice [1]) [%] | inhibition in vivo at 0.005 % in diet (KKAY mice [2]; [3]) [%] | inhibition in vivo at 0.005 % in diet (KKAY mice [2]; [4]) [%] | melting point [°C] | EC50 (PPARγ-RXRα heterodimer) [nM] | EC50 (PPARδ-RXRα heterodimer) [nM] |
| --- | --- | --- | --- | --- | --- | --- |
| CCCc1nn(-c2ccc(C(F)(F)F)cn2)cc1CCCOc1cccc(OC(C)(C)C(=O)O)c1 [Example 41, 2-methyl-2-[3-(3-{3-propyl-1-[5-(trifluoromethyl)-2-pyridyl]-1H-pyrazol-4-yl}propoxy)phenoxy]propionic acid] | 12 | 25 | 48 | 99 to 100 | 77 |  |
| CC(C)c1nn(-c2ccc(C(F)(F)F)cn2)cc1CCCOc1cccc(OC(C)(C)C(=O)O)c1 [Example 28, 2-[3-{3-(3-isopropyl-1-[5-(trifluoromethyl)-2-pyridyl]-1H-pyrazol-4-yl}propoxy)phenoxy]-2-methylpropionic acid] | 18 | 42 | 56 | 101 to 102 | 35 |  |
| CC(C)c1nn(-c2ccc(C(F)(F)F)cn2)cc1CCCOc1cccc(CC(=O)O)c1 [Example 22, [3-(3-{3-isopropyl-1-[5-(trifluoromethyl)-2-pyridyl]-1H-pyrazol-4-yl}propoxy)phenyl]acetic acid] | 12 |  |  | 82 to 83 |  | 8.6 |
| Cn1cc(CC(=O)O)c(OCCCc2cn(-c3ccc(C(F)(F)F)cn3)nc2C2CCCCC2)n1 [Example 303, [3-(3-{3-cyclohexyl-1-[5-(trifluoromethyl)-2-pyridinyl]-1H-pyrazol-4-yl}propoxy)-1-methyl-1H-pyrazol-4-yl]acetic acid] | 14 |  |  | 157 to 158 | 52 |  |
| CCC(CC)c1nn(-c2ccc(C(F)(F)F)nn2)cc1CCCOc1c(CC(=O)O)cccc1OC [Example 339, [2-(3-{3-(1-ethylpropyl)-1-[6-(trifluoromethyl)pyridazin-3-yl]-1H-pyrazol-4-yl}propoxy)-3-methoxyphenyl]acetic acid] | 22 | 50 | 54 | 81 to 82 |  |  |
| Cc1cccc(CC(=O)O)c1OCCCc1cn(-c2ccc(C(F)(F)F)cn2)nc1C(C)C [Example 315, [2-(3-{3-isopropyl-1-[5-(trifluoromethyl)-2-pyridinyl]-1H-pyrazol-4-yl}propoxy)-3-methylphenyl]acetic acid] | 11 | 53 | 70 | 159 to 160 | 35 |  |
| CCC(CC)c1nn(-c2ccc(C(F)(F)F)cn2)cc1CCCOc1nn(CC)cc1CC(=O)O [Example 333, [1-ethyl-3-(3-{3-(1-ethylpropyl)-1-[5-(trifluoromethyl)-2-pyridinyl]-1H-pyrazol-4-yl}propoxy)-1H-pyrazol-4-yl]acetic acid] | 11 |  |  |  | 61 |  |
| CCOc1cc(OCCCc2cn(-c3ccc(C(F)(F)F)cn3)nc2OCC)ccc1CCC(=O)O [Example 35, 3-[2-ethoxy-4-(3-{3-ethoxy-1-[5-(trifluoromethyl)-2-pyridyl]-1H-pyrazol-4-yl}propoxy)phenyl]propionic acid] | 14 | 30 | 32 | 96 to 97 |  | 1.6 |
| O=C(O)Cc1ccccc1OCCCc1cn(-c2ccc(C(F)(F)F)cn2)nc1C1CCCCC1 [Example 302, [2-(3-{3-cyclohexyl-1-[5-(trifluoromethyl)-2-pyridinyl]-1H-pyrazol-4-yl}propoxy)phenyl]acetic acid] | 24 |  |  | 127 to 128 | 37 |  |
| CCc1cccc(CC(=O)O)c1OCCCc1cn(-c2ccc(Cl)cn2)nc1C(CC)CC [Example 253, (2-{3-[1-(5-chloro-2-pyridinyl)-3-(1-ethylpropyl)-1H-pyrazol-4-yl]propoxy}-3-ethylphenyl)acetic acid] | 16 | 49 | 35 | 114 to 115 |  |  |
| Cc1nn(-c2ccc(C(F)(F)F)cn2)cc1COc1ccc(OC(C)(C)C(=O)O)cc1 [Example 34, 2-methyl-2-(4-{3-methyl-1-[5-(trifluoromethyl)-2-pyridyl]-1H-pyrazol-4-ylmethoxy}phenoxy)propionic acid] | 20 | 49 | 77 | 106 to 107 |  | 8.1 |
| CCC(CC)c1nn(-c2ccc(Cl)cn2)cc1CCCOc1c(C)cccc1CC(=O)O [Example 224, (2-{3-[1-(5-chloro-2-pyridyl)-3-(1-ethylpropyl)-1H-pyrazol-4-yl]propoxy}-3-methylphenyl)acetic acid] | 14 | 48 | 60 | 106 to 107 |  |  |
| CCOc1cccc(CC(=O)O)c1OCCCc1cn(-c2ccc(Cl)cn2)nc1C(CC)CC [Example 225, (2-{3-[1-(5-chloro-2-pyridyl)-3-(1-ethylpropyl)-1H-pyrazol-4-yl]propoxy}-3-ethoxyphenyl)acetic acid] | 12 | 31 | 35 | 92 to 93 |  |  |
| COc1cccc(CC(=O)O)c1OCCCc1cn(-c2ccc(C(C)=O)cn2)nc1C(C)C [Example 332, (2-{3-[1-(5-acetyl-2-pyridinyl)-3-isopropyl-1H-pyrazol-4-yl]propoxy}-3-methoxyphenyl)acetic acid] | 11 |  |  | 148 to 149 | 29 |  |
| CCOc1cccc(CC(=O)O)c1OCCCc1cn(-c2ccc(C(F)(F)F)cn2)nc1C(C)C [Example 300, [3-ethoxy-2-(3-{3-isopropyl-1-[5-(trifluoromethyl)-2-pyridinyl]-1H-pyrazol-4-yl}propoxy)phenyl]acetic acid] | 12 | 36 | 39 | 141 to 142 |  |  |

Source: patent US20060148858A1, “1, 2-Azole derivatives with hypoglycemic and hypolipidemic activity” (priority 2002, published 2006)
